The text below walks through data of ChEMBL document CHEMBL1255264, “Mechanism-based pharmacokinetic-pharmacodynamic models of in vitro fungistatic and fungicidal effects against Candida albicans” (Antimicrob Agents Chemother, 2008).

Values after ≈ are worked out from the molar mass of the structure shown.

Test [1] deals with Candida albicans. Description: Antifungal activity against Candida albicans ATCC 3153 assessed as maximum killing rate in vitro pharmacokinetic-pharmacodynamic model. In kind it is functional.
For test [2], the system named is Candida albicans. The experiment in a line: Antifungal activity against Candida albicans ATCC 3153 assessed as death stimulation in vitro pharmacokinetic-pharmacodynamic model. It is filed as functional, organism-based.
Test [3] relates to Candida albicans. Description: Antifungal activity against Candida albicans ATCC 3153 after 48 hrs. In kind it is functional. The following applies: ATCC 3153, 48 h.
Test [4] has as its system Candida albicans. The experiment in a line: Antifungal activity against Candida albicans ATCC 3153 in vitro pharmacokinetic-pharmacodynamic model. In kind it is functional, organism-based.

As a reminder, the EC50 is the concentration needed to bring the measured effect to its halfway point. By MIC is commonly meant the smallest concentration in the dilution series that meets the test's criterion for growth inhibition. Low readings indicate inhibition by little substance, high ones a need for much substance. As to `CC[C@H](C)C[C@H](C)CCCCCCCCC(=O)N[C@H]1C[C@@H](O)[C@@H](NCCN)NC(=O)[C@@H]2[C@@H](O)CCN2C(=O)[C@H]([C@H](O)CCN)NC(=O)[C@H]([C@H](O)[C@@H](O)c2ccc(O)cc2)NC(=O)[C@@H]2C[C@@H](O)CN2C(=O)[C@H]([C@@H](C)O)NC1=O` [CASPOFUNGIN], in the test with Candida albicans [1], the Emax stood at 8.04 ×10⁻¹ /hr. For the same compound, the half-maximal effective concentration (EC50) in the test with Candida albicans [2] was 0.000251 µg/mL (≈ 0.00023 µM). Also, the MIC in the test with Candida albicans [3] came out at 0.015 µg/mL (≈ 0.0137 µM).

As usually defined, the IC50 is the concentration that inhibits the measured activity by half. A lower IC50 goes with higher potency. Compound `OC(Cn1cncn1)(Cn1cncn1)c1ccc(F)cc1F` [FLUCONAZOLE] registered an IC50 in the test on Candida albicans [4] of 0.0929 µg/mL (≈ 0.303 µM).
